Test: xn = mol fraction of the nth substance listed

O=c1[nH]c2nc(O)nc(O)c2[nH]1 + O
viscosity [mPa·s], 101.3 kPa
Settings	298.15 K	303.15 K	308.15 K	313.15 K
x1 = 1e-06	0.9	0.82	0.73	0.63
x1 = 2e-06	0.9	0.83	0.75	0.65
x1 = 3e-06	0.91	0.84	0.76	0.66

C1COCOC1 + NC=O
viscosity [mPa·s], 101 kPa
Settings	x2 = 0.6012	x2 = 0.6156	x2 = 0.8658	x2 = 0.8689	x2 = 0.9552	x2 = 0.9555
298.15 K	2.039	–	3.119	–	–	3.328
313.15 K	–	1.581	–	2.196	2.366	–

CCCCOC(C)=O + CCCCCO
viscosity [mPa·s], 101 kPa
Settings	x1 = 0.0963	x1 = 0.2032	x1 = 0.2987	x1 = 0.4058	x1 = 0.4868	x1 = 0.5981	x1 = 0.7048	x1 = 0.7976	x1 = 0.8954
298.15 K	2.974	2.512	2.15	1.797	1.561	1.284	1.059	0.907	0.769
303.15 K	2.593	2.191	1.886	1.573	1.37	1.14	0.963	0.846	0.723
308.15 K	2.287	1.933	1.669	1.396	1.223	1.025	0.875	0.776	0.678
313.15 K	2.018	1.714	1.483	1.261	1.107	0.941	0.809	0.717	0.639

Clc1ccccc1Cl + Nc1cccc(Cl)c1
viscosity [mPa·s], 100 kPa
Settings	x2 = 0.1053	x2 = 0.2011	x2 = 0.3045	x2 = 0.4064	x2 = 0.507	x2 = 0.6062	x2 = 0.7041	x2 = 0.8007	x2 = 0.906
303.15 K	1.568	1.866	2.184	2.495	2.799	3.097	3.389	3.674	3.983
308.15 K	1.444	1.71	1.995	2.274	2.546	2.812	3.072	3.326	3.6
313.15 K	1.319	1.555	1.807	2.053	2.293	2.527	2.756	2.979	3.22
318.15 K	1.206	1.412	1.629	1.842	2.048	2.25	2.447	2.639	2.845

CCCOC(=O)c1ccccc1 + CCCCCCCC
101 kPa
Settings	viscosity [mPa·s]
298.15 K, x2 = 0.0773	2.082
298.15 K, x2 = 0.1026	1.998
298.15 K, x2 = 0.1613	1.792
298.15 K, x2 = 0.2565	1.512
298.15 K, x2 = 0.3067	1.381
298.15 K, x2 = 0.3482	1.286
298.15 K, x2 = 0.3951	1.187
298.15 K, x2 = 0.4424	1.094
298.15 K, x2 = 0.4882	1.018
298.15 K, x2 = 0.5342	0.948
298.15 K, x2 = 0.5836	0.882
298.15 K, x2 = 0.6253	0.828
298.15 K, x2 = 0.6796	0.769
298.15 K, x2 = 0.727	0.723
298.15 K, x2 = 0.8351	0.633
298.15 K, x2 = 0.9429	0.558
308.15 K, x2 = 0.0816	1.645
308.15 K, x2 = 0.13	1.512
308.15 K, x2 = 0.1656	1.421
308.15 K, x2 = 0.2095	1.318
308.15 K, x2 = 0.2541	1.225
308.15 K, x2 = 0.2993	1.136
308.15 K, x2 = 0.3584	1.034
308.15 K, x2 = 0.3968	0.972
308.15 K, x2 = 0.4503	0.897
308.15 K, x2 = 0.4892	0.846
308.15 K, x2 = 0.5375	0.79
308.15 K, x2 = 0.5822	0.743
308.15 K, x2 = 0.6192	0.707
308.15 K, x2 = 0.6824	0.653
308.15 K, x2 = 0.7188	0.625
308.15 K, x2 = 0.7692	0.588
308.15 K, x2 = 0.8292	0.55
308.15 K, x2 = 0.8674	0.527
308.15 K, x2 = 0.9303	0.497
318.15 K, x2 = 0.0629	1.422
318.15 K, x2 = 0.09	1.361
318.15 K, x2 = 0.1362	1.261
318.15 K, x2 = 0.1878	1.163
318.15 K, x2 = 0.233	1.081
318.15 K, x2 = 0.2525	1.047
318.15 K, x2 = 0.33	0.926
318.15 K, x2 = 0.3813	0.856
318.15 K, x2 = 0.4267	0.801
318.15 K, x2 = 0.4776	0.744
318.15 K, x2 = 0.5373	0.686
318.15 K, x2 = 0.5751	0.653
318.15 K, x2 = 0.6208	0.616
318.15 K, x2 = 0.671	0.581
318.15 K, x2 = 0.7073	0.556
318.15 K, x2 = 0.7545	0.53
318.15 K, x2 = 0.8156	0.497
318.15 K, x2 = 0.8667	0.472
318.15 K, x2 = 0.9127	0.453

CCCCOC(C)=O + C1CCCCC1
viscosity [mPa·s], 101 kPa
Settings	298.15 K	308.15 K
x1 = 0.0561	0.854	0.723
x1 = 0.156	0.801	0.676
x1 = 0.2818	0.749	0.631
x1 = 0.4867	0.693	0.585
x1 = 0.4963	0.691	0.584
x1 = 0.5327	0.685	0.579
x1 = 0.5738	0.678	0.575
x1 = 0.6816	0.667	0.568
x1 = 0.7552	0.663	0.568
x1 = 0.8686	0.663	0.575
x1 = 0.9568	0.669	0.586

O=[PH2][O-].[Na+] + O
Settings	viscosity [mPa·s]
298.15 K, 101 kPa, x1 = 0.2095	4.83

Oc1ccccc1Cl + c1ccncc1
viscosity [mPa·s], 101 kPa
Settings	293.15 K	303.15 K	313.15 K
x1 = 0.07182	1.158	0.994	0.863
x1 = 0.1451	1.459	1.249	1.073
x1 = 0.2211	1.903	1.588	1.351
x1 = 0.311	2.62	2.152	1.773
x1 = 0.395	3.69	2.96	2.31
x1 = 0.4815	5.28	3.92	2.98
x1 = 0.5607	6.82	4.72	3.53
x1 = 0.6186	7.8	5.22	3.78
x1 = 0.6723	8.23	5.4	3.84
x1 = 0.7248	8.16	5.36	3.78
x1 = 0.7794	7.58	5.04	3.55
x1 = 0.8837	5.97	4.11	2.94

CCCCOC(C)=O + Cc1cccc(C)c1
viscosity [mPa·s], 101 kPa
Settings	298.15 K	308.15 K
x1 = 0.0468	0.583	0.528
x1 = 0.1506	0.587	0.531
x1 = 0.2497	0.592	0.535
x1 = 0.3502	0.598	0.539
x1 = 0.4477	0.606	0.545
x1 = 0.4941	0.61	0.548
x1 = 0.549	0.615	0.551
x1 = 0.6505	0.625	0.559
x1 = 0.7501	0.637	0.568
x1 = 0.8511	0.651	0.577
x1 = 0.9409	0.664	0.587

Source: the CheMixHub viscosity set
